Results taken from ChEMBL document CHEMBL1150209, “(-)-Grandisin form Cryptocarya crassinervia” (J Nat Prod, 1991).
Converted amounts (≈) assume the structure as drawn.

Key:
[1] = Toxicity against brine shrimp; assay type: organism-based; details: artemia, in vivo
[2] = test system: A549; test: Cytotoxicity against human A549 cells; assay type: functional; details: read-out: ED50 (the source's name)
[3] = test system: MCF7; test: Cytotoxicity against human MCF7 cells; assay type: functional; details: read-out: ED50 (the source's name)
[4] = test system: HT-29; test: Cytotoxicity against human HT-29 cells; assay type: functional; details: read-out: ED50 (the source's name)

With `COc1cc([C@@H]2O[C@@H](c3cc(OC)c(OC)c(OC)c3)[C@H](C)[C@H]2C)cc(OC)c1OC` [GRANDISIN] as the molecule, how does the LC50 [1] read?
The LC50 was 21 µg/mL (≈ 48.6 µM).

What about the EC50 [2] of the same molecule?
Its EC50 is greater than 10 µg/mL.

And the EC50 [3]?
The EC50 was greater than 10 µg/mL.

What about the EC50 [4] of the same molecule?
Its EC50 is greater than 10 µg/mL.
